Source: patent US9592223B2, “Small molecule inhibitors of MALT1” (Cornell University, priority 2012, dated 2017)
Entries after “also recorded” stand apart in the source; their conditions may differ.

Tests used:
[1] = tested on: primary human non-GCB DLBCL cells; assay: Primary human DLBCL cells ex vivo, non-GCB cases, Trypan blue; type: cell-based; settings: 0.8 μM, 48 hr
Method: After 48 hr exposure, cell number and viability were determined using Trypan blue.
Patient de-identified tissues were obtained in accordance with the guidelines and approval of the Weill Cornell Medical College Review Board. Patient samples were processed as previously described (Cerchietti et al., 2010). Briefly, single cell suspensions from lymph node biopsies were obtained by physical disruption of tissues followed by cell density gradient separation (Fico/Lite LymphoH, Atlanta Biologicals, Lawrenceville, Ga.). Cell number and viability were determined by Trypan blue exclusion. Primary DLBCL cells were cultured in 96-well plates. Cells were grown in advanced RPMI medium with 20% FBS supplemented with antibiotics for 48 hours. […] After 48 hr of exposure, viability was determined by using Trypan blue (Sigma). All samples were normalized to their own replicate control. Statistical significance was calculated using paired T-test.

[2] = tested on: cell cycle; assay: BrdU incorporation - DAPI staining cell cycle flow cytometry; type: cell-based; settings: increasing concentrations
Method: Cell proliferation was examined using the CFSE dilution assay by flow cytometry on viable cells at 48, 72 and 96 h. […] Trypan blue exclusion and apoptosis assessed by Annexin V^+ DAPI^− flow cytometry was measured every 48 hr for a period of 14 days.
To determine cell-cycle distribution, cells were analyzed by flow cytometry using pulse-BrdU (bromodeoxyuridine) incorporation with the APC BrdU Flow Kit (BD Pharmingen, San Jose, Calif.).

[3] = tested on: MALT1-mediated cleavage of CYLD; assay: MALT1-mediated cleavage of CYLD in HBL-1 cells, Western blotting and densitometry; type: cell-based, human
Method: A total of 704 analog compounds from available libraries with similarity score ≧70% (Tanimoto similarity functions) were screened by LZ-MALT1 fluorescence assay.
Equal amounts of total protein (20-75 μg) were separated on sodium dodecyl sulfate-polyacrylamide gel electrophoresis (SDS-PAGE), and electrotransferred onto nitrocellulose membranes. Membranes were incubated with primary antibodies (MALT1, BCL-10, CYLD from Santa Cruz Biotechnologies, Santa Cruz, Calif.; A20 from eBioscience, San Diego, Calif.; phospho-IκB-α, IκB-α, c-REL, RELB from Cell Signaling, Danvers, Mass. and α-Tubulin from Sigma), followed by secondary antibodies conjugated to horseradish peroxidase, which were detected by chemiluminescence (Pierce, Thermo Scientific, Rockford, Ill.).

[4] = tested on: MALT1^WT NF-κB activation; assay: NF-κB reporter assay in 293T cells, PMA/ionomycin, BCL10 and MALT1 WT; type: cell-based; settings: pre-treatment
Source text: (§1) Antigen receptor-mediated NF-κB signaling partly depends on MALT1 activity (Ruefli-Brasse et al., 2003; Ruland et al., 2003). […] First, 293T cells were transfected with the NF-κB reporter vector (NF-κB)5-luc2CP-pGL4 (harboring 5 copies of the NF-κB consensus response element and a destabilized Firefly luciferase) and TK-pRL control together with plasmids expressing BCL10 and either MALT1^WT or MALT1^C464A. […] HBL-1 was transfected with the reporter construct (NF-κB)5-luc2CP-pGL4 and TK-pRL control.
(§2) Reporter assays were performed in 293T cells seeded at a density of 2×10^5 cells per well of a 12-well dish. 100 ng of (NF-κB)5-Luc2CP-pGL4 and 10 ng of TK-Renilla internal control plasmid were cotransfected along with 25 ng of the indicated plasmids (MIGR1-MALT1^WT or MIGR1-MALT1^C464A and pcDNA4-Flag-Bcl10) using Lipofectamine 2000 (Invitrogen). Lysates were submitted to dual luciferase assays following manufacturer's protocol (Promega). In HBL-1, 5 μg of (NF-κB)5-Luc2CP-pGL4 and 50 ng of TK-Renilla internal control plasmid per 5×10^6 cells were cotransfected using nucleofection (Amaxa, Lonza, Basel, Switzerland). Forty-eight hours after transfection, cells were plated at a density of 5×10^4 cells per well of a 24-well plate and treated as indicated. Lysates were submitted to dual luciferase assays following manufacturer's protocol (Promega).

[5] = molecular target: T1, LZ-MALT1 (Homo sapiens, UniProt Q9UDY8); assay: Dose-effect and time-course of MALT1 inhibition (pre-incubation, then Ac-LRSR-AMC); type: biochemical; settings: pre-incubation 5 to 80 minutes
T1 construct: His tag (N); made in house; host or cells: E. coli
Method: The reactions were monitored in a SpectraMax M5 plate reader (Molecular Devices, Sunnyvale, Calif. USA) with excitation/emission wavelength at 360/465 nm and 20 seconds intervals. Normalized percentage of inhibition was calculated with the following formula: (M(T2-T1)−N(T2-T1))/(P(T2-T1)−N(T2-T1))*100, where M(T2-T1) is the difference signal of compound at time point 200s and 0s, N(T2-T1) is the difference signal of negative control buffer only, P(T2-T1) is the difference signal of positive control Z-VRPR-FMK.

[6] = tested on: MALT1^C464A (inactive mutant) NF-κB activation; assay: NF-κB reporter assay in 293T cells, PMA/ionomycin, BCL10 and MALT1 C464A; type: cell-based; settings: pre-treatment
Source text: as §1, §2

[7] = tested on: GCB-DLBCL cell lines OCI-Ly7 and OCI-Ly1; assay: Growth inhibition, GCB-DLBCL cell lines; type: cell-based, human; settings: increasing concentrations, single dose, 48 hr
Method: Endogenous MALT1 activity was evaluated by Western blotting for A20, BCL10 and CYLD; and NF-κB activation, by phospho-IκB-α and total IκB-α. Dependence on MALT1 proteolytic activity for proliferation was tested by 50[…]μM Z-VRPR-FMK treatment for 48 hr. […] The U2932 and HLY1 ABC-DLBCL cell lines harbor mutations in TAK1 and A20, which activate NF-κB signaling downstream of MALT1.
Cell proliferation was determined by ATP quantification using a luminescent method (CellTiter-Glo, Promega, Madison, Wis.) and Trypan blue dye-exclusion (Sigma, St. Louis, Mo.). Cell viability in drug-treated cells was normalized to their respective controls (fractional viability) and results are given as 1-fractional viability. […]
DLBCL cell lines were grown in exponential growth conditions during the 48 hr of treatment. Cell proliferation was determined by ATP quantification using a luminescent method (CellTiter-Glo, Promega, Madison, Wis.) and Trypan blue dye-exclusion (Sigma, St. Louis, Mo.). Luminescence was measured using the Synergy4 microplate reader (BioTek Instruments, Winooski, Vt.). Standard curves for each cell line were calculated by plotting the cell number (determined by the Trypan blue method) against their luminescence values and number of cells was calculated accordingly. […]

[8] = molecular target: Caspase-9 (Homo sapiens, UniProt P55211); assay: Caspase selectivity; type: biochemical
Caspase-9, sequence (P55211 whole entry, species assumed): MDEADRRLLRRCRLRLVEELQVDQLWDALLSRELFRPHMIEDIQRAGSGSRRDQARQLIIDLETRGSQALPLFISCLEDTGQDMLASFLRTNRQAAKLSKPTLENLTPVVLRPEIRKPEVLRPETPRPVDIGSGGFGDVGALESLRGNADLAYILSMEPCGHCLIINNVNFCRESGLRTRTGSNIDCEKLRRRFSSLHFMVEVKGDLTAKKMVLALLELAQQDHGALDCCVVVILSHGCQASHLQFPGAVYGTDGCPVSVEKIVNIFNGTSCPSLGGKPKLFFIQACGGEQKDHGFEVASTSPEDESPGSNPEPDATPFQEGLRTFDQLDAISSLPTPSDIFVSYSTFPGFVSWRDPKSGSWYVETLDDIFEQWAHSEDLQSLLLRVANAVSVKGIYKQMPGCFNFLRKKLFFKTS

T1 sequence (Q9UDY8 with tags, fused parts or gaps limits assumed): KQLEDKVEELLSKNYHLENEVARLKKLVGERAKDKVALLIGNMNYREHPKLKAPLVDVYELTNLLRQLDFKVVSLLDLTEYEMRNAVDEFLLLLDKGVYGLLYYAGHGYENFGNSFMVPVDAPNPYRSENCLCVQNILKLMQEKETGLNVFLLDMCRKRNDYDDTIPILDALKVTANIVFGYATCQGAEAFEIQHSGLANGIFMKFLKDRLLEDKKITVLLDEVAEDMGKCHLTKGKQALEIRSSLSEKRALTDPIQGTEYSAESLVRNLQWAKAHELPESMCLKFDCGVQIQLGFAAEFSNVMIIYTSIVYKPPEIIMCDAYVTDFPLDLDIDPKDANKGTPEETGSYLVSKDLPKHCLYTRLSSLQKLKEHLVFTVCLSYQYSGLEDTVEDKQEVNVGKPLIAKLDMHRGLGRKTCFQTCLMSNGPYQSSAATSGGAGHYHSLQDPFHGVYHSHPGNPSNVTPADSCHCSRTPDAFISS

COCCOc1nc(-c2ccc(Cl)c(Cl)c2)n(-c2ccc(NC(=O)CCl)cc2)n1 [MI-2]
response of cell number and viability [1]: two of the non-GCB cases responded; also recorded: One of the non-GCB did not respond | cell cycle distribution [2]: dose-dependent decrease in S phase | MALT1-mediated cleavage of CYLD ([3]; HBL-1, increasing concentrations, 24 hr): dose-dependent decrease in MALT1-mediated cleavage | inhibition of MALT1 cleavage of CYLD ([3]; analogs 5 μM for 8 hr, Z-VRPR-FMK 50 μM as positive control): most potent compound | NF-κB induction by PMA/ionomycin stimulation [4]: significantly inhibited NF-κB induction | kind of inhibition (time dependence) [5]: covalent and irreversible inhibition | percent MALT1 inhibition reached [5]: ~100% | NF-κB induction by PMA/ionomycin stimulation [6]: did not significantly affect | growth inhibition [7]: resistant | activity against Caspase-9 [8]: little activity
